This is an account of results in publication PMC11187126, “Structure and dynamics of the pyroglutamylated RF-amide peptide QRFP receptor GPR103” (Nature Communications, 2024).

Like-named read-outs stand apart in the source and are kept apart here. No end group written: not given here.

The experiment addresses T1, GPR103 C285^6.47A (Homo sapiens, UniProt Q96P65, C285A).
T1 construct: we used human full-length QRFPR-encoding plasmids; expressed in transfected cells; host or cells: HEK293 cells (HEK293A in the flow cytometry section), pCAGGS vector
T1 sequence (Q96P65 1-431 C285A): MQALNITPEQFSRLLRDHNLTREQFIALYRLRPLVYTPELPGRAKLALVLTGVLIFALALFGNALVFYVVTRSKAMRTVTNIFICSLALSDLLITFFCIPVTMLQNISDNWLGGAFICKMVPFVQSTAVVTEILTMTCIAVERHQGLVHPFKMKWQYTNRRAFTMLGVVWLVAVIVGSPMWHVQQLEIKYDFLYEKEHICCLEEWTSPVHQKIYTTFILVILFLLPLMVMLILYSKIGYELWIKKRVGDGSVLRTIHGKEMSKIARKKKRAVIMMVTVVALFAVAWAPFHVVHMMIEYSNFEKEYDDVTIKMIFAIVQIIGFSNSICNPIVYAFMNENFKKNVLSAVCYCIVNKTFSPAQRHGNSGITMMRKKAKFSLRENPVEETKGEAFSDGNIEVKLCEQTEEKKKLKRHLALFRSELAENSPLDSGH
Kind of experiment: TGFα shedding assay; Exp. level WT (1:20). In kind it is cell-based. How it is done:
For the TGFα shedding assay and the flow cytometry analysis, we used human full-length QRFPR-encoding plasmids. Specifically, GPR103 was N-terminally modified with an HA signal sequence followed by a FLAG epitope and then a flexible linker ([…]; the FLAG epitope is underlined) and inserted into the pCAGGS vector. Plasmid encoding GPR103 mutants were generated using Quickchange Site-Directed Mutagensis kit (Agilent).
The TGFα shedding assay was performed as described previously with minor modifications. Plasmid transfection was performed in a 6-well plate with a mixture of 500 ng (per well in a 6-well plate) AP-TGFα-encoding plasmid and 200 ng GPR103-encoding plasmid. After 1-day culture, the transfected cells were harvested by trypsinization, pelleted by centrifugation at 190 × g for 5 min, and washed once with 5 mM HEPES (pH 7.4)-containing Hank’s Balanced Salt Solution (HBSS). After centrifugation, the cells were resuspended in 8 mL of the HEPES-containing HBSS. The cell suspension was seeded in a 96-well culture plate (cell plate) at a volume of 90 μL (per well hereafter) and incubated in a 37 °C incubator with 5% CO2 for 30 min. […] After spinning the cell plates at 190 × g for 2 min, 80 μL of conditioned media was transferred to an empty 96-well plate (conditioned media (CM) plate). Then, 80 μL of AP reaction solution (10 mM p-nitrophenylphosphate (p-NPP), 120 mM Tris-HCl (pH 9.5), 40 mM NaCl, and 10 mM MgCl2) was dispensed into the cell plates and the CM plates. Absorbance at 405 nm of the plates was measured using a microplate reader (SpectraMax 340 PC384, Molecular Devices) before and after 1-h incubation at room temperature. Ligand-induced AP-TGFα release was calculated by subtracting spontaneous AP-TGFα release signal from ligand-induced AP-TGFα release signal. The AP-TGFα release signals were fitted to a four-parameter sigmoidal concentration–response curve, using the Prism 10 software (GraphPad Prism). For each replicate experiment, the pEC50 parameter (negative logarithmic values of EC50 values) of the individual GPR103 mutants were normalized to that of the wild-type GPR103 performed in parallel, and resulting ∆pEC50 values were used to denote ligand response activity of the mutants. […]
Exp. le vel: WT (1:5 0)Exp. le vel: WT (1:5 0)Exp. le vel: WT (1:5 0)Exp. le vel: WT (1:2 0)Exp. le vel: WT (1:2 0)Exp. le vel: WT (1:1 0) […]
L1 4N - t e r mA F2 5N - t e r mA I 2 6N - t e r mA Y 2 9N - t e r mA C 9 82 .5 7A T10 22 .6 1A Exp . l eve l: WT (1 :5)Exp . l evel : >WT (1 :1)Exp. le vel: WT (1:2 0)Exp. le vel: WT (1:2 0)Exp. le vel: WT (1:5 0)Exp . l eve l: WT (1 :1) […]
Exp. le vel: WT (1:1 0)Exp. le vel: WT (1:2 0) C 1 1 83 .2 5AExp. le vel: WT (1:5 0)Exp. le vel: WT (1:5 0)Exp. le vel: WT (1:2 0)Exp . l eve l: WT (1 :5) […]
Exp. le vel: WT (1:5 0)Exp. le vel: WT (1:1 0)Exp. le vel: WT (1:5 0) E203ECL2AExp . l evel : >WT (1 :1)Exp. le vel: WT (1:5 0)Exp. le vel: WT (1:5 0) […]
Exp . l eve l: WT (1 :1) F28Exp. le vel: WT (1:5 0) C 2 8 56 .4 7AExp. le vel: WT (1:2 0) WExp. le vel: WT (1:2 0) F28Exp. le vel: WT (1:5 0)Exp . l evel : >WT (1 :1) […]
Exp. le vel: WT (1:5 0)Exp. le vel: WT (1:5 0) C 3 2 77 .4 8AExp . l eve l: WT (1 :5)Exp . l evel : >WT (1 :1)Exp . l evel : >WT (1 :1) […]
Suppl eme nt ary Figure 1 | Mutational analysis of GPR103. […]
mutants. Data are presented as mean values ± SEM, normally n=3-5; dots), each performed in triplicate. b-d Cell-surface expression (b) and QRFP26-in-duced activation of GPR103 (c, d) were analyzed by the flow cytometry and the TGFα shedding assay, respectively. From the concentration–response curves (a), Emax (c) and ΔpEC50 (d) values relative to the wild type were calculated. Colors in the mutant bars indicate an expression level matching to that of titrated wild type. Statistical analyses were performed using the ordinary one-way ANOVA followed by Dunnett tests with the expression-matched […]

On to TSGPLGNLAEELNGYSRKKGGFSFRF-NH2 [QRFP26], for which the Emax runs as follows: (Exp. #1) 81.15 % WT; (Exp. #2) 80.43 % WT; (Exp. #3) 87.98 % WT; (mean, read-out: Emax) 83.2%; (n = 3, read-out: Emax) 86.7 ± 2%. Moreover, for the setting “n = 3”, the EC50 (usually the concentration needed to bring the measured effect to its halfway point) is 0.0141 µM.
